# Measured values reported in patent US20240043404A1 (AbbVie Inc., priority 2009, published 2024).
# Tested on: RS4;11 cells
# Test: RS4;11 cell viability assay (CellTiter Glo);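 also: acute lymphoblastic leukemia line RS4,11, EC50 derived from percentage of viable cells after treatment relative to untreated controls, cell killing taken as a measure of Bcl-2 inhibition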
# Format: cell-based, human
# Conditions: Homo sapiens, RS4-11, 48 h, 50,000 cells per well, 10% human serum, 48 hours; read-out: RS4; 11 EC50 Values
# Procedure: The acute lymphoblastic leukemia (ALL) cell line RS4;11 was used as the primary human cell line to assess the cellular activity of Bcl-2 selective agents in vitro and their efficacy in vivo.
# Cell cytotoxicity EC50 values were assessed using CellTiter Glo (Promega) according to the manufacturer's recommendations. The EC50 values were determined as a percentage of viable cells following treatment compared to the untreated control cells.
row,SMILES,EC50
1,"CN(C)CC(=O)N1CC[C@@H](Nc2ccc(S(=O)(=O)NC(=O)c3ccc(N4CCN(CC5=C(c6ccc(Cl)cc6)CC(C)(C)CC5)CC4)cc3Oc3cnc4[nH]ccc4c3)cc2[N+](=O)[O-])C1 [Example 255, 4-(4-{[2-(4-chlorophenyl)-4,4-dimethylcyclohex-1-en-1-yl]methyl}piperazin-1-yl)-N-[(4-{[(3R)-1-(N,N-dimethylglycyl)pyrrolidin-3-yl]amino}-3-nitrophenyl)sulfonyl]-2-(1H-pyrrolo[2,3-b]pyridin-5-yloxy)benzamide]",9 nM
2,"CC1(C)CCC(CN2CCN(c3ccc(C(=O)NS(=O)(=O)c4ccc(NC5CN(C6COC6)C5)c([N+](=O)[O-])c4)c(Oc4cnc5[nH]ccc5c4)c3)CC2)=C(c2ccc(Cl)cc2)C1 [Example 256, 4-(4-{[2-(4-chlorophenyl)-4,4-dimethylcyclohex-1-en-1-yl]methyl}piperazin-1-yl)-N-[(3-nitro-4-{[1-(oxetan-3-yl)azetidin-3-yl]amino}phenyl)sulfonyl]-2-(1H-pyrrolo[2,3-b]pyridin-5-yloxy)benzamide]",18 nM
3,"CC1(C)CCC(CN2CCN(c3ccc(C(=O)NS(=O)(=O)c4cnc(OCC5(F)CCN(CC#N)CC5)c(Cl)c4)c(Oc4cnc5[nH]ccc5c4)c3)CC2)=C(c2ccc(Cl)cc2)C1 [Example 257, N-[(5-chloro-6-{[1-(cyanomethyl)-4-fluoropiperidin-4-yl]methoxy}pyridin-3-yl)sulfonyl]-4-(4-{[2-(4-chlorophenyl)-4,4-dimethylcyclohex-1-en-1-yl]methyl}piperazin-1-yl)-2-(1H-pyrrolo[2,3-b]pyridin-5-yloxy)benzamide]",26 nM
4,"CC1(C)CCC(CN2CCN(c3ccc(C(=O)NS(=O)(=O)c4cnc(O[C@@H]5CCN(CC(F)F)C5)c(Cl)c4)c(Oc4cnc5[nH]ccc5c4)c3)CC2)=C(c2ccc(Cl)cc2)C1 [Example 261, N-[(5-chloro-6-{[(3R)-1-(2,2-difluoroethyl)pyrrolidin-3-yl]oxy}pyridin-3-yl)sulfonyl]-4-(4-{[2-(4-chlorophenyl)-4,4-dimethylcyclohex-1-en-1-yl]methyl}piperazin-1-yl)-2-(1H-pyrrolo[2,3-b]pyridin-5-yloxy)benzamide]",184 nM
5,"CC1(C)CCC(CN2CCN(c3ccc(C(=O)NS(=O)(=O)c4ccc(N[C@@H]5CCN(CC#N)C5)c([N+](=O)[O-])c4)c(Oc4cnc5[nH]ccc5c4)c3)CC2)=C(c2ccc(Cl)cc2)C1 [Example 262, 4-(4-{[2-(4-chlorophenyl)-4,4-dimethylcyclohex-1-en-1-yl]methyl}piperazin-1-yl)-N-[(4-{[(3R)-1-(cyanomethyl)pyrrolidin-3-yl]amino}-3-nitrophenyl)sulfonyl]-2-(1H-pyrrolo[2,3-b]pyridin-5-yloxy)benzamide]",16.3 nM
6,"COC1(Cc2ccccc2-c2ccc(Cl)cc2)CCN(c2ccc(C(=O)NS(=O)(=O)c3cnc(OCC4(F)CCOCC4)c(Cl)c3)c(Oc3cnc4[nH]ccc4c3)c2)CC1 [Example 263, 4-{4-[(4′-chlorobiphenyl-2-yl)methyl]-4-methoxypiperidin-1-yl}-N-({5-chloro-6-[(4-fluorotetrahydro-2H-pyran-4-yl)methoxy]pyridin-3-yl}sulfonyl)-2-(1H-pyrrolo[2,3-b]pyridin-5-yloxy)benzamide]",> 1000 nM
7,"COC1(Cc2ccccc2-c2ccc(Cl)cc2)CCN(c2ccc(C(=O)NS(=O)(=O)c3ccc(NCC4CCOCC4)c([N+](=O)[O-])c3)c(Oc3cnc4[nH]ccc4c3)c2)CC1 [Example 264, 4-{4-[(4′-chlorobiphenyl-2-yl)methyl]-4-methoxypiperidin-1-yl}-N-({3-nitro-4-[(tetrahydro-2H-pyran-4-ylmethyl)amino]phenyl}sulfonyl)-2-(1H-pyrrolo[2,3-b]pyridin-5-yloxy)benzamide]",689 nM
8,"CC(C)N1CCC2(CCC(c3ccc(Cl)cc3)=C(CN3CCN(c4ccc(C(=O)NS(=O)(=O)c5ccc(NCC6CCOCC6)c([N+](=O)[O-])c5)c(Oc5cnc6[nH]ccc6c5)c4)CC3)C2)CC1 [Example 266, 4-(4-{[9-(4-chlorophenyl)-3-isopropyl-3-azaspiro[5.5]undec-8-en-8-yl]methyl}piperazin-1-yl)-N-({3-nitro-4-[(tetrahydro-2H-pyran-4-ylmethyl)amino]phenyl}sulfonyl)-2-(1H-pyrrolo[2,3-b]pyridin-5-yloxy)benzamide]",7.29 nM
9,"O=C(NS(=O)(=O)c1cnc(OCC2CCOCC2)c(Cl)c1)c1ccc(N2CCN(CC3=C(c4ccc(Cl)cc4)CCC4(CCN(C(CF)CF)CC4)C3)CC2)cc1Oc1cnc2[nH]ccc2c1 [Example 267, 4-(4-{[9-(4-chlorophenyl)-3-(1,3-difluoropropan-2-yl)-3-azaspiro[5.5]undec-8-en-8-yl]methyl}piperazin-1-yl)-N-{[5-chloro-6-(tetrahydro-2H-pyran-4-ylmethoxy)pyridin-3-yl]sulfonyl}-2-(1H-pyrrolo[2,3-b]pyridin-5-yloxy)benzamide]",69.4 nM
10,"CC(C)N1CCC2(CCC(c3ccc(Cl)cc3)=C(CN3CCN(c4ccc(C(=O)NS(=O)(=O)c5cnc(OCC6CCOCC6)c(Cl)c5)c(Oc5cnc6[nH]ccc6c5)c4)CC3)C2)CC1 [Example 268, 4-(4-{[9-(4-chlorophenyl)-3-isopropyl-3-azaspiro[5.5]undec-8-en-8-yl]methyl}piperazin-1-yl)-N-{[5-chloro-6-(tetrahydro-2H-pyran-4-ylmethoxy)pyridin-3-yl]sulfonyl}-2-(1H-pyrrolo[2,3-b]pyridin-5-yloxy)benzamide]",48.8 nM
11,"O=C(NS(=O)(=O)c1ccc(NCC2CCOCC2)c([N+](=O)[O-])c1)c1ccc(N2CCC(F)(Cc3ccccc3-c3ccc(Cl)cc3)CC2)cc1Oc1cnc2[nH]ccc2c1 [Example 271, 4-{4-[(4′-chlorobiphenyl-2-yl)methyl]-4-fluoropiperidin-1-yl}-N-({3-nitro-4-[(tetrahydro-2H-pyran-4-ylmethyl)amino]phenyl}sulfonyl)-2-(1H-pyrrolo[2,3-b]pyridin-5-yloxy)benzamide]",437 nM
12,"O=C(NS(=O)(=O)c1cnc(OCC2(F)CCOCC2)c(Cl)c1)c1ccc(N2CCC(F)(Cc3ccccc3-c3ccc(Cl)cc3)CC2)cc1Oc1cnc2[nH]ccc2c1 [Example 272, 4-{4-[(4′-chlorobiphenyl-2-yl)methyl]-4-fluoropiperidin-1-yl}-N-({5-chloro-6-[(4-fluorotetrahydro-2H-pyran-4-yl)methoxy]pyridin-3-yl}sulfonyl)-2-(1H-pyrrolo[2,3-b]pyridin-5-yloxy)benzamide]",840 nM
13,"CC(C)N1CCC2(CCC(c3ccc(Cl)cc3)=C(CN3CCN(c4ccc(C(=O)NS(=O)(=O)c5ccc(NCC6CCOCC6)c(C(F)(F)F)c5)c(Oc5cnc6[nH]ccc6c5)c4)CC3)C2)CC1 [Example 273, 4-(4-{[9-(4-chlorophenyl)-3-isopropyl-3-azaspiro[5.5]undec-8-en-8-yl]methyl}piperazin-1-yl)-2-(1H-pyrrolo[2,3-b]pyridin-5-yloxy)-N-({4-[(tetrahydro-2H-pyran-4-ylmethyl)amino]-3-(trifluoromethyl)phenyl}sulfonyl)benzamide]",209 nM

# The next lines start with the values.
row,EC50,SMILES
1,0.553 nM,"CN(C)CC(=O)N1CCO[C@H](CNc2ccc(S(=O)(=O)NC(=O)c3ccc(N4CCN(CC5=C(c6ccc(Cl)cc6)CC(C)(C)CC5)CC4)cc3Oc3cnc4[nH]ccc4c3)cc2[N+](=O)[O-])C1 [Example 258, 4-(4-{[2-(4-chlorophenyl)-4,4-dimethylcyclohex-1-en-1-yl]methyl}piperazin-1-yl)-N-{[4-({[(2R)-4-(N,N-dimethylglycyl)morpholin-2-yl]methyl}amino)-3-nitrophenyl]sulfonyl}-2-(1H-pyrrolo[2,3-b]pyridin-5-yloxy)benzamide]"
2,0.388 nM,"CN(C)CC(=O)N1CCO[C@@H](CNc2ccc(S(=O)(=O)NC(=O)c3ccc(N4CCN(CC5=C(c6ccc(Cl)cc6)CC(C)(C)CC5)CC4)cc3Oc3cnc4[nH]ccc4c3)cc2[N+](=O)[O-])C1 [Example 259, 4-(4-{[2-(4-chlorophenyl)-4,4-dimethylcyclohex-1-en-1-yl]methyl}piperazin-1-yl)-N-{[4-({[(2S)-4-(N,N-dimethylglycyl)morpholin-2-yl]methyl}amino)-3-nitrophenyl]sulfonyl}-2-(1H-pyrrolo[2,3-b]pyridin-5-yloxy)benzamide]"
3,5.43 nM,"CN(C)CC(=O)N1CCC(COc2ncc(S(=O)(=O)NC(=O)c3ccc(N4CCN(CC5=C(c6ccc(Cl)cc6)CC(C)(C)CC5)CC4)cc3Oc3cnc4[nH]ccc4c3)cc2Cl)CC1 [Example 260, N-[(5-chloro-6-{[1-(N,N-dimethylglycyl)piperidin-4-yl]methoxy}pyridin-3-yl)sulfonyl]-4-(4-{[2-(4-chlorophenyl)-4,4-dimethylcyclohex-1-en-1-yl]methyl}piperazin-1-yl)-2-(1H-pyrrolo[2,3-b]pyridin-5-yloxy)benzamide]"
4,7.17 nM,"O=C(NS(=O)(=O)c1ccc(NCC2CCOCC2)c([N+](=O)[O-])c1)c1ccc(N2CCN(CC3=C(c4ccc(Cl)cc4)CCC4(CCN(C(CF)CF)CC4)C3)CC2)cc1Oc1cnc2[nH]ccc2c1 [Example 265, 4-(4-{[9-(4-chlorophenyl)-3-(1,3-difluoropropan-2-yl)-3-azaspiro[5.5]undec-8-en-8-yl]methyl}piperazin-1-yl)-N-({3-nitro-4-[(tetrahydro-2H-pyran-4-ylmethyl)amino]phenyl}sulfonyl)-2-(1H-pyrrolo[2,3-b]pyridin-5-yloxy)benzamide]"
5,7.23 nM,"CN1CCC(F)(COc2ncc(S(=O)(=O)NC(=O)c3ccc(N4CCN(CC5=C(c6ccc(Cl)cc6)CC(C)(C)CC5)CC4)cc3Oc3cnc4[nH]ccc4c3)cc2Cl)CC1 [Example 269, N-({5-chloro-6-[(4-fluoro-1-methylpiperidin-4-yl)methoxy]pyridin-3-yl}sulfonyl)-4-(4-{[2-(4-chlorophenyl)-4,4-dimethylcyclohex-1-en-1-yl]methyl}piperazin-1-yl)-2-(1H-pyrrolo[2,3-b]pyridin-5-yloxy)benzamide]"
6,2.52 nM,"CN(C)CC(=O)N1CCC(F)(COc2ncc(S(=O)(=O)NC(=O)c3ccc(N4CCN(CC5=C(c6ccc(Cl)cc6)CC(C)(C)CC5)CC4)cc3Oc3cnc4[nH]ccc4c3)cc2Cl)CC1 [Example 270, N-[(5-chloro-6-{[1-(N,N-dimethylglycyl)-4-fluoropiperidin-4-yl]methoxy}pyridin-3-yl)sulfonyl]-4-(4-{[2-(4-chlorophenyl)-4,4-dimethylcyclohex-1-en-1-yl]methyl}piperazin-1-yl)-2-(1H-pyrrolo[2,3-b]pyridin-5-yloxy)benzamide]"
